Results on one compound are retold here after ChEMBL document CHEMBL1125954, “Studies on quinazolinones. 3: 1 novel and efficient route to the synthesis of conformationally restricted analogues of ketanserin and SGB-1534 as antihypertensive agents” (Bioorg Med Chem Lett, 1991).

The assay deals with Adrenergic receptor alpha-1 (Rattus norvegicus) (UniProt P15823+P23944+P43140). Kind of assay: Compound was tested for antihypertensive activity mediated through Alpha-1 adrenergic receptor in anesthetized rat. It counts as functional.

The ED50 is the dose that gives a 50% effect, or the effect in half of the subjects. High values mean weaker potency, low ones greater potency. In turn, `O=C1Nc2ccccc2C2=NC(CN3CCN(c4ccccc4)CC3)CN12` (stereo unspecified) gave an ED50 of 0.25 mg/kg.
